We go through six compounds from patent EP4653443A1, “STEREOISOMER AND DEUTERATED DERIVATIVE OF PYRAZOLOQUINAZOLINE COMPOUND AND USE” (Phil Rivers Technology Co., Ltd, priority 2023, dated 2024).

Values after ≈ are worked out from the molar mass of the structure shown.

Data set [1] in a line: Permeability and transporter substrate test in Caco-2 cells (ABBA). Format: in vitro ADME. The conditions noted are these: human, pH 7.4; for Papp A→B at 2 h, 5 µM: Caco-2, A to B, read-out: Average Papp PappA-B; for Papp B→A at 2 h, 5 µM: Caco-2, B to A, read-out: Average Papp PappB-A; for efflux ratio at 2 h, 5 µM: Caco-2, Papp(B-A)/Papp(A-B), read-out: Efflux Rate (ERa). Here is the method: (§1) Apparent permeability coefficient (Papp, cm/s) and efflux ratio were calculated using Microsoft Excel.
(In general: Caco-2 monolayers are a common model of the intestinal barrier.)

The subject of the next data set is Caco-2 cells. The data set is described as above. As to conditions: Caco-2. Format: in vitro ADME. Here is the method:
as §1

Data set [2] relates to pancreatic cancer cell line (PSN1). The data set can be described thus: Proliferation inhibitory activity on cell line PSN1 (CellTiter-Glo, 72 hours). As to conditions: for IC50: Homo sapiens, PSN1 cell proliferation; for Max Inhibition Percentage: PSN1 cells. Format: cell-based. Here is the method:
• a) Adherent cells need to be digested and centrifuged, while suspension cells can be directly centrifuged; • b) Resuspend with complete culture medium and count using an automatic cell counter; • c) Plate 6,000 cells per well for PSN1, and dilute the cell suspension to the required density; • d) Add 100 µL of cells per well, and culture overnight at 37°C in a 5% CO2 incubator to stabilize and balance the cells.
• a) Prepare the compound with DMSO as a solution of 200-fold final concentration; • b) Dilute the 200-fold compound to a 3-fold final concentration with complete culture medium; • c) Add 50 µL of the compound per well, use wells with the same volume of culture medium as controls, and continue culturing in a 37°C, 5% CO2 incubator for 72 hours.
• a) Equilibrate the cell plate and CTG reagent to room temperature; • b) Add 30 µL of CellTiter-Glo® reagent per well; • c) Incubate at room temperature for 15 minutes; • d) Detect with a microplate reader.
• 1) Calculate IC50 using GraphPad Prism 8; • 2) %Inh = (1-(Raw data - Meanmin) / (Meanmax - Meanmin))×100; • 3) Meanmax is the positive control well with only cells and the same volume of culture medium; • 4) Meanmin is the negative control well with only culture medium; • 5) Raw data refers to the signal values of wells with added compounds. For two replicate wells, they are denoted as Raw1 and Raw2.

Another data set is described as follows: in vivo. As to conditions: mouse, in vivo, iv, 2 mg/kg.
The nature of data set [3]: Pharmacokinetic study in mice (IV and PO, plasma LC-MS/MS). As to conditions: PO 5 mg/kg vs IV 2 mg/kg.
Experimental: (§4) The objective of this study is to investigate the pharmacokinetic properties of the disclosed compounds after tail vein intravenous injection (IV) and oral administration (PO) in female CD1 mice. Plasma was sampleed at 0, 0.083, 0.25, 0.5, 1, 2, 4, 7 and 24 hours post-dosing, and the drug concentrations in plasma at different time points were detected by LC-MS/MS, and the relevant pharmacokinetic parameters were calculated using WinNonlin software.
(§5) Experimental female CD1 mice were purchased from SPF Laboratory Animal Technology Co., Ltd., aged 6-8 weeks with body weights of 20-30 g. The female CD1 mice were housed in a controlled environment (set temperature at 20-25°C and relative humidity at 40-70%). A 12-hour light/12-hour dark cycle was maintained unless interrupted by study-related events.
(§6) Compound solutions are prepared in an ultra-clean workbench and prepared immediately before use, and mixed thoroughly prior to use to ensure formulation homogeneity.
(§7) Vehicle composition: 10% DMSO+90% (20%SBE-β-CD) Table 4. Doses Used in IV Administration
(§8) Vehicle composition: 10% DMSO + 90% (20%SBE-β-CD) Table 5. Doses Used in PO Administration
(§9) Vehicle composition: 0.5% MC + 1% Tween-20 Table 6. Doses Used in PO Administration
(§10) Prior to the experiment, the animals were randomly grouped. The mice were fasted for 12 hours before drug administration, and free feeding was resumed 4 hours after administration.
(§11) All blood samples were transferred into plastic microcentrifuge tubes containing anticoagulant (EDTA-K2), and then centrifuged at 4000 g for 5 minutes at 4°C. The supernatant was transferred into a microcentrifuge tube without anticoagulant, and the plasma was stored in a -75±15°C refrigerator until detection.
(§12) The blood samples were purified by HPLC and analyzed by mass spectrometry to obtain the plasma concentration-time curve of the disclosed compound.
(§13) The pharmacokinetic parameters were estimated by non-compartmental model method (calculated by Phoenix WinNonlin software).
Data set [4] can be described thus: Metabolic stability in liver microsomes (human). Format: in vitro ADME. The conditions noted are these: for Residual Amount (%) 15 min / Residual Amount (%) 30 min / Residual Amount (%) 45 min / Residual Amount (%) 60 min: Human, first line of pair. Here is the method: (§2) For negative samples, add 80µL of PBS (100mM, pH = 7.4) solution. Vortex at 800 rpm for 10 seconds, then pre-incubate in a 37°C water bath for 10 minutes. • 4) After pre-incubation, add 2 µL of control drug or test compound to each well to initiate the reaction. The reaction is carried out in a 37°C water bath at 60 rpm. • 5) At 0.5, 15, 30, 45, and 60 minutes, take 50 µL of the reaction system from each well and add it to 200 µL of cold methanol solution containing the internal standard to terminate the reaction. • 6) Mix thoroughly and centrifuge at 4000 rpm at 4°C for 30 minutes. • 7) Take 100µL of supernatant and mix with 100µL ultrapure water for liquid-mass analysis. *Internal standards: 50nM alprazolam, 50nM labetalol and 100nM ketoprofen
(§3) The internal standard method is adopted, and the ratio of the sample peak area to the internal standard peak area is used to calculate the residual percentage (taking the ratio of the sample peak area to the internal standard peak area at 0.5 minutes as 100%).
Background: Liver microsomes are a subcellular fraction often used to study metabolism.

Data set [5] in a line: Metabolic stability in liver microsomes (mouse). Format: in vitro ADME. The conditions noted are these: for Residual Amount (%) 15 min / Residual Amount (%) 30 min / Residual Amount (%) 45 min / Residual Amount (%) 60 min: Mouse, first line of pair. On the procedure: as §2, §3
Data set [6] can be described thus: Thermodynamic solubility test. Format: physicochemical. The conditions noted are these: phosphate buffer, aqueous buffer, thermodynamic from solid, pH 7.4, 25°C. Here is the method:
Weigh 7.098 g Na2HPO4 (Solution A) and dissolve in 500 mL ultrapure water via sonication; weigh 3.40 g KH2PO4 (Solution B) and dissolve in 250 mL ultrapure water via sonication. Slowly add Solution B dropwise to Solution A and adjust the pH to 7.40 ± 0.05.
Shake at 1100 rpm, 25°C for 5 minutes; • i) Add 10 µL of the 1 mg/mL DMSO sample and 10 µL of buffer to 980 µL of methanol, then dilute 10-fold with methanol:water (1:1) as the standard sample for LC-MS/MS analysis.
Solubility was calculated using Excel. Solubility(μM) = (Areafiltered × DFfiltered)/(Areastd × DFstd) × [std] × DFstd [formula]

Experimental for in vivo: as §4, §5, §6, §7, §8, §9, §10, §11, §12, §13

For `C[C@H]1O[C@@H](O[C@H]2[C@@H](O)C[C@H](O[C@H]3[C@@H](O)C[C@H](O[C@H]4CC[C@@]5(C)[C@H](CC[C@@H]6[C@@H]5C[C@@H](O)[C@]5(C)[C@@H](C7=CC(=O)OC7)CC[C@]65O)C4)O[C@@H]3C)O[C@@H]2C)C[C@H](O)[C@@H]1O` [Digoxin], in data set [1], the Papp A→B at 2 h, 5 µM was found to be 0.94 ×10⁻⁶ cm/s; the Papp B→A at 2 h, 5 µM was found to be 26.1 ×10⁻⁶ cm/s; the efflux ratio at 2 h, 5 µM turned out to be 27.8. Moreover, in the data set on Caco-2 cells, the “Classification Efflux Transporter Substrate” value is given as “Probable (ERa ≧ 2)”.

On to `CC(C)NCC(O)COc1cccc2ccccc12` (centres unmarked) [Propranolol], for which, in data set [1], the Papp A→B at 2 h, 5 µM was determined as 22.3 ×10⁻⁶ cm/s; the Papp B→A at 2 h, 5 µM came to 14.7 ×10⁻⁶ cm/s; the efflux ratio at 2 h, 5 µM came out at 0.66. Besides, the “Classification Efflux Transporter Substrate” value in the data set on Caco-2 cells is recorded as “Unlikely or Not (ERa<2)”.

On to `COc1cc2nc(N3CCN(C(=O)c4ccco4)CC3)nc(N)c2cc1OC` [Prazosin], for which, in data set [1], the Papp A→B at 2 h, 5 µM came to 8.97 ×10⁻⁶ cm/s and the Papp B→A at 2 h, 5 µM worked out at 29.6 ×10⁻⁶ cm/s.

As for `NC(=O)c1nn(CCO)c2c1CCc1cnc(Nc3cc(N4CCN5CCC[C@H]5C4)ccc3OC(F)(F)F)nc1-2` [CPD03], 256 nM corresponded to half-maximal inhibition in data set [2] (IC50). For the same compound, in data set [2] (first column of this head), the “Max Inhibition Percentage” value turned out to be 73.6. Further, the “Max Inhibition Percentage” value in data set [2] (second column of this head) is -3.1. For the same compound, in “in vivo”, the AUC(0-t) (commonly exposure summed from dosing to a finite time, without extrapolation to infinity) was 433 ng·h/mL; the Vd – broadly, the apparent volume that relates the amount in the body to the concentration in plasma or blood – came to 4.29 L/kg; the clearance (in general, the rate of elimination divided by the concentration) stood at 79.1 mL/min/kg; the half-life (as a rule, the time needed for the level to fall by half in the phase considered) is 226 min. In addition, the F in data set [3] worked out at 16.2%.

Consider `NC(=O)c1nn(CCO)c2c1CCc1cnc(Nc3cc(N4CCN5CCC[C@@H]5C4)ccc3OC(F)(F)F)nc1-2` [CPD02], for which, in data set [2], it took 67.6 nM to reach half-maximal inhibition (IC50). The “Max Inhibition Percentage” value in data set [2] (first column of this head) was 80.8. Further, the “Max Inhibition Percentage” value in data set [2] (second column of this head) was 6.7. In data set [4] (Human liver microsomes), the half-life amounted to 21.4 min and the microsomal CLint – broadly, the rate of metabolic loss divided by the concentration – was found to be 64.8 µL/min/mg. Moreover, in data set [4], the “Residual Amount (%) 15 min” value was 54.16%, the “Residual Amount (%) 30 min” value came out at 32.53%, the “Residual Amount (%) 45 min” value is reported as 22.97% and the “Residual Amount (%) 60 min” value is reported as 13.71%. Also, in data set [5] (Mouse liver microsomes), the half-life is 31.5 min and the microsomal CLint was 44 µL/min/mg. For the same compound, in data set [5], the “Residual Amount (%) 15 min” value is on record as 56.76%, the “Residual Amount (%) 30 min” value was determined as 39.33%, the “Residual Amount (%) 45 min” value is 30.29% and the “Residual Amount (%) 60 min” value is given as 26.56%. In addition, in data set [1], the Papp A→B at 2 h, 5 µM stood at 7.83 ×10⁻⁶ cm/s; the Papp B→A at 2 h, 5 µM stood at 23.8 ×10⁻⁶ cm/s; the efflux ratio at 2 h, 5 µM was found to be 3.04. The “Classification Efflux Transporter Substrate” value in the data set on Caco-2 cells is “Probable (ERa ≧ 2)”. Further, the concentration in solution in data set [6] (solubility at 24 h) came to 2.1 µg/mL (≈ 3.76 µM). In “in vivo”, the AUC(0-t) amounted to 404 ng·h/mL, the Vd turned out to be 3.05 L/kg, the clearance was 81.7 mL/min/kg and the half-life was 81.6 min. In data set [3], this compound registered an F of 38.0%.

In the case of `O=C(O)Cc1ccccc1Nc1c(Cl)cccc1Cl` [Diclofenac, reference compound], in data set [4], the “Residual Amount (%) 15 min” value came to 10.78%, the “Residual Amount (%) 30 min” value is 5.62%, the “Residual Amount (%) 45 min” value was 3.65% and the “Residual Amount (%) 60 min” value was 2.93%. This compound returned a microsomal CLint at 2 µM in data set [4] (pH 7.4, Human liver microsomes) of 194 µL/min/mg. Also, in data set [5], the “Residual Amount (%) 15 min” value amounted to 61.24%, the “Residual Amount (%) 30 min” value was determined as 56.66%, the “Residual Amount (%) 45 min” value is listed as 51.87% and the “Residual Amount (%) 60 min” value worked out at 45.26%. The compound also returned a microsomal CLint in data set [5] (male, CD-1, pH 7.4, Mouse liver microsomes) of 67.6 µL/min/mg.
